Results reported in ChEMBL document CHEMBL1201862, “PubChem BioAssay data set” (2004).
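1) Cells in 96-well plates. 2) Compound, 48 h, 5 concentrations. 3) Linear interpolation between surrounding doses. 4) Unreached endpoint = highest concentration. Here, GI50 denotes the concentration required for 50% inhibition of growth.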 The source made the active and inactive calls. No stated cut-off is given here; in the data, active = GI50 up to about 1.1 µM and inactive = higher.

Legend:
Test in all cases: NCI tumour cell line growth inhibition, 48 h
[1] = test system: NCI-H522
[2] = test system: HCT-116
[3] = test system: OVCAR-8
[4] = test system: RXF 393
[5] = test system: SF-295
[6] = test system: UACC-62
[7] = test system: SK-MEL-28
[8] = test system: HCT-15
[9] = test system: RPMI-8226
[10] = test system: KM12
[11] = test system: K562
[12] = test system: CCRF-CEM
[13] = test system: M14
[14] = test system: HT-29
[15] = test system: MOLT-4
[16] = test system: SN12C
[17] = test system: A498
[18] = test system: CAKI-1
[19] = test system: MCF7

| SMILES | GI50 [1] | GI50 [2] | GI50 [3] | GI50 [4] | GI50 [5] | GI50 [6] | GI50 [7] | GI50 [8] [µM] | GI50 [9] | GI50 [10] | GI50 [11] | GI50 [12] | GI50 [13] | GI50 [14] | GI50 [15] | GI50 [16] | GI50 [17] | GI50 [18] | GI50 [19] |
| --- | --- | --- | --- | --- | --- | --- | --- | --- | --- | --- | --- | --- | --- | --- | --- | --- | --- | --- | --- |
| O=C1/C(=C/c2ccccc2)CN(C(=O)Oc2ccc([N+](=O)[O-])cc2)C/C1=C\c1ccccc1 | 3.18 µM (inactive) | 0.506 µM (active) | 1.12 µM (active) | 6.84 µM (inactive) | 1.33 µM (inactive) | 2.41 µM (inactive) | 3.48 µM (inactive) | 2.08 | 0.0551 µM (active) | 0.661 µM (active) | 0.859 µM (active) | 1.38 µM (inactive) | 0.908 µM (active) | 1.42 µM (inactive) | 0.649 µM (active) | 2.79 µM (inactive) | > 10 µM (inactive) | > 10 µM (inactive) | – |
| Cc1oncc1/N=C1\C=C(O)C(=O)c2ccccc21 | 5.41 µM (inactive) | 3.16 µM (inactive) | 2.53 µM (inactive) | 13.2 µM (inactive) | 7.66 µM (inactive) | 2.99 µM (inactive) | 15.4 µM (inactive) | 3.72 | 7.64 µM (inactive) | 6.21 µM (inactive) | 6.14 µM (inactive) | 3.38 µM (inactive) | 6.1 µM (inactive) | 3.65 µM (inactive) | 2.5 µM (inactive) | 5.73 µM (inactive) | 13.2 µM (inactive) | 9.18 µM (inactive) | 2.68 µM (inactive) |
| COc1ccccc1NC(=O)C(CC(C(=O)Nc1ccccc1OC)/C(C)=N/NC(=O)c1ccccc1O)/C(C)=N/NC(=O)c1ccccc1O (centres undefined) | 64.4 µM (inactive) | – | 75 µM (inactive) | 38.8 µM (inactive) | 59.7 µM (inactive) | – | > 100 µM (inactive) | – | 59.8 µM (inactive) | > 100 µM (inactive) | > 100 µM (inactive) | 33 µM (inactive) | > 100 µM (inactive) | > 100 µM (inactive) | 47.5 µM (inactive) | > 100 µM (inactive) | 65 µM (inactive) | 67 µM (inactive) | – |
| O=c1[nH]c(=O)n(Cc2ccccc2CO)cc1Sc1ccccc1 | 1.87 µM (inactive) | 25.3 µM (inactive) | 17.7 µM (inactive) | 24.7 µM (inactive) | 30 µM (inactive) | 31.3 µM (inactive) | 34.8 µM (inactive) | 18.8 | – | 23.7 µM (inactive) | 6.78 µM (inactive) | 28.7 µM (inactive) | 19.7 µM (inactive) | 30.5 µM (inactive) | 54.5 µM (inactive) | 34.8 µM (inactive) | – | 13.5 µM (inactive) | 22.3 µM (inactive) |
| CCc1cccc(C(C)CC)c1NC(=O)C(=O)C(CC(=O)Nc1ccc(Cl)c(Cl)c1)C(=O)OC (centres undefined) | 38.5 µM (inactive) | > 100 µM (inactive) | > 100 µM (inactive) | > 100 µM (inactive) | 30.4 µM (inactive) | 3.59 µM (inactive) | > 100 µM (inactive) | 20.2 | 43.4 µM (inactive) | 41.5 µM (inactive) | 9.79 µM (inactive) | > 100 µM (inactive) | 57.1 µM (inactive) | 76 µM (inactive) | 71.3 µM (inactive) | > 100 µM (inactive) | > 100 µM (inactive) | 19.5 µM (inactive) | – |
| C/C(=C\CO)CC/C=C(\C)CNc1ccccc1 | 23.2 µM (inactive) | 54.5 µM (inactive) | 82.8 µM (inactive) | 48.1 µM (inactive) | 38.5 µM (inactive) | 36.1 µM (inactive) | 51.1 µM (inactive) | 67.8 | – | 28.4 µM (inactive) | 28.6 µM (inactive) | – | 62.7 µM (inactive) | 19.4 µM (inactive) | 13 µM (inactive) | 57.5 µM (inactive) | – | 57.5 µM (inactive) | 78.7 µM (inactive) |
| O=C(NNC(=S)NC1CCCCC1)c1csc(NC(=S)NC2CCCCC2)n1 | 12 µM (inactive) | 4.27 µM (inactive) | 2.25 µM (inactive) | – | 5.87 µM (inactive) | 4.45 µM (inactive) | – | 0.463 | 9.86 µM (inactive) | 10.6 µM (inactive) | – | 5.73 µM (inactive) | 3.46 µM (inactive) | > 100 µM (inactive) | 3.42 µM (inactive) | 5.6 µM (inactive) | 21.5 µM (inactive) | 7.23 µM (inactive) | 7.55 µM (inactive) |
| O=C(O)C#CCO | > 100 µM (inactive) | > 100 µM (inactive) | > 100 µM (inactive) | > 100 µM (inactive) | > 100 µM (inactive) | > 100 µM (inactive) | > 100 µM (inactive) | > 100 | > 100 µM (inactive) | > 100 µM (inactive) | > 100 µM (inactive) | > 100 µM (inactive) | > 100 µM (inactive) | > 100 µM (inactive) | > 100 µM (inactive) | > 100 µM (inactive) | > 100 µM (inactive) | > 100 µM (inactive) | – |
| N=C(N)NS(=O)(=O)c1ccc(NC(=O)c2cccc3c(Nc4ccc(S(=O)(=O)N=C(N)N)cc4)c4ccc(Cl)cc4nc23)cc1 | 30.4 µM (inactive) | 38.7 µM (inactive) | 61.2 µM (inactive) | > 100 µM (inactive) | > 100 µM (inactive) | 33.3 µM (inactive) | 75 µM (inactive) | > 100 | 43.9 µM (inactive) | > 100 µM (inactive) | 41.3 µM (inactive) | 55 µM (inactive) | 70.1 µM (inactive) | > 100 µM (inactive) | 56.2 µM (inactive) | 75.5 µM (inactive) | > 100 µM (inactive) | 94.6 µM (inactive) | – |
| CC(=O)OCC1OC(OC2CC3C(C)(C)C(OC(C)=O)CC[C@]3(C)C3CCC45CC4(CC[C@H]5C(C)CC(O)C4OC4(C)C)[C@]23C)C(O)C(O)C1O (some centres undefined) | 1.59 µM (inactive) | 1.34 µM (inactive) | 2.2 µM (inactive) | 1.55 µM (inactive) | 1.69 µM (inactive) | 1.99 µM (inactive) | 2.03 µM (inactive) | 1.55 | 1.95 µM (inactive) | 1.35 µM (inactive) | 1.13 µM (inactive) | 1.04 µM (active) | 2.03 µM (inactive) | 0.92 µM (active) | 0.189 µM (active) | 2.29 µM (inactive) | 4.72 µM (inactive) | 4.32 µM (inactive) | – |
| COC(OC)[C@@H](C)[C@H](O)[C@](C)(O)C1OC(C)(C)OC(C(C)C=C(C)C)C1C (some centres undefined) | > 100 µM (inactive) | > 100 µM (inactive) | > 100 µM (inactive) | 66.4 µM (inactive) | > 100 µM (inactive) | > 100 µM (inactive) | > 100 µM (inactive) | > 100 | 48.6 µM (inactive) | > 100 µM (inactive) | 77.1 µM (inactive) | > 100 µM (inactive) | > 100 µM (inactive) | > 100 µM (inactive) | 72.4 µM (inactive) | > 100 µM (inactive) | > 100 µM (inactive) | > 100 µM (inactive) | – |
| CSc1ccc2c(cc1=O)[C@@H](NC(=O)c1ccc(F)cc1)CCc1cc(O)c(O)c(O)c1-2 | > 100 µM (inactive) | > 100 µM (inactive) | > 100 µM (inactive) | > 100 µM (inactive) | > 100 µM (inactive) | > 100 µM (inactive) | > 100 µM (inactive) | > 100 | > 100 µM (inactive) | > 100 µM (inactive) | 64.3 µM (inactive) | 56 µM (inactive) | > 100 µM (inactive) | > 100 µM (inactive) | > 100 µM (inactive) | > 100 µM (inactive) | > 100 µM (inactive) | > 100 µM (inactive) | – |
